Read-outs that look alike come from different tables or passages of the source.
Columns and labels:
in vitro [1] = details: human, 6 days
From the text: Freshly isolated human peripheral blood mononuclear cells (PBMCs) were obtained from healthy volunteers (supplied by AllCells, Inc., Alameda, CA). Blood donors were negative for HIV-1, hepatitis B, and hepatitis C viral infections. CD4^+ T lymphocytes were isolated by negative selection using a magnetically labeled antibody cocktail ([sequence] Technologies Inc., Vancouver, Canada) and cultured in RPMI cell culture media (Life Technologies, Grand Island, NY) supplemented with 10% FBS. CD4^+ T cells were activated for 48 h at 37°C by addition of 1 μg/ml phytohemagglutinin (PHA; Sigma, St. Louis, MO) and 5 ng/ml interleukin-2 (IL-2; Roche Diagnostics, Indianapolis, IN). […] Human PBMCs were used for cytotoxicity assays after culturing for 48 h in either complete RPMI medium alone (resting conditions) or RPMI containing 1 μg/ml PHA and 5 ng/ml IL-2 (activated conditions).

[2] = Cytotoxicity in AD38 cells; details: human
[3] = system: NRTI-, NNRTI- and PI-Resistant HIV-1 Mutants; test: Antiviral activity against NRTI-, NNRTI- and PI-resistant HIV-1 mutants; format: cell-based; details: Human immunodeficiency virus 1; WT, Table S7
[4] = system: HRV (mixture of HRV1A, HRV14, HRV16); test: microbe, parasite or virus in culture; format: cell-based; details: Human rhinovirus sp., H1-HeLa
[5] = target: T1, HIV-1 IN strand transfer activity (Human immunodeficiency virus type 1 group M subtype B, UniProt P04585); test: IN strand transfer assay (HTRF); format: biochemical; details: purified recombinant HIV-1 IN; mean ± SD, 3 experiments; read-out: IC50 Inhibition of strand transfer
T1 construct: Recombinant IN containing an N-terminal 6His tag was expressed in BL21(DE3) pLysS bacteria; 6His (N); made in house; host or cells: E. coli BL21(DE3) pLysS
Protocol: (§1) The strand transfer activity of IN was measured using an assay based on homogeneous time-resolved fluorescence resonance energy transfer (HTRF) ([34]) and has been previously described in detail ([35]). An HTRF-based 3′-processing assay was performed essentially as described for the IN strand transfer assay using a specially designed nonprocessed donor DNA in the absence of target DNA ([35]).

[6] = system: HIV-1 integration in MT-2 cells (HIV-1 IIIb); details: HIV-1 IIIb-infected MT-2, relative to mock-treated control
Protocol: Quantification of 2-long terminal repeat (LTR) circles, late reverse transcription products, and integration junctions was adapted from a previously described method ([30]). […] Three hours after viral adsorption, the infected cells were washed twice with 20 ml of RPMI 1640 medium containing 10% FBS and antibiotics and seeded in 6-well plates in 2 ml of culture medium at 1 × 10^6 cells per well. […] These plates were incubated at 37°C for either 12 h (for late reverse transcription product quantification) or 24 h (for 2-LTR circle and Alu-LTR product quantification), after which time the cells were harvested for total DNA isolation. DNA was extracted from each well using the QIAamp DNA minikit (Qiagen, Valencia, CA) and collected as a 100-μl eluate. TaqMan real-time PCR-quantified 2-LTR junctions (2-LTR circles), late reverse transcription products, and integration junctions (Alu-LTR) were normalized to the level of host globin gene in each sample. Quantification by PCR was performed on the ViiA 7 real-time PCR system (Life Technologies, Grand Island, NY).

HIV-1 clinical isolates = test: Antiviral assay against HIV-1 clinical isolates in fresh human PBMCs (RT endpoint)
Influenza A/PC/1/73 = test: microbe, parasite or virus in culture; format: cell-based; details: NHBE
[7] = target: T2, HIV-1 IN 3′-processing activity (Human immunodeficiency virus type 1 group M subtype B, UniProt P04585); test: IN 3′-processing assay (HTRF); format: biochemical; details: purified recombinant HIV-1 IN; mean ± SD, 5 experiments
T2 construct: Recombinant IN containing an N-terminal 6His tag was expressed in BL21(DE3) pLysS bacteria; 6His (N); made in house; host or cells: E. coli BL21(DE3) pLysS
Protocol: as §1

in vitro [8] = details: human, CC50 in Primary Human Hepatocytes
HIV-1 IIIb = test: microbe, parasite or virus in culture; details: Human immunodeficiency virus 1, IIIB, MT4
Protocol: Each compound series was prepared several times independently in quadruplicate to capture the variations in Hill slope associated with preparation of compound serial dilutions. The assay was performed in a 384-well format. MT-4 cells were infected in bulk at the same MOI as that described above, and the plates were developed with CellTiter-Glo reagent 5 days postinfection.

[9] = Cytotoxicity assay in MT-2 cells; format: cell-based; details: human, uninfected MT-2 cells
Protocol: For the antiviral assay utilizing MT-2 and MT-4 cells, 50 μl of a 2× test concentration of 5-fold serially diluted compound in culture medium with 10% FBS was added to each well of a 96-well plate (9 concentrations) in triplicate. MT-2 and MT-4 cells were infected with HIV-1 IIIb at a multiplicity of infection (MOI) of 0.01 for 3 h. Fifty microliters of infected cell suspension in culture medium with 10% FBS (∼1.5 × 10^4 cells) then was added to each well containing 50 μl of diluted compound. The plates were then incubated at 37°C for 5 days. After 5 days of incubation, 100 μl of CellTiter-Glo reagent (Promega Biosciences, Inc., Madison, WI) was added to each well containing MT-2 or MT-4 cells. Cell lysis was carried out by incubation at room temperature for 10 min and chemiluminescence was read. For compound cytotoxicity assessment, the protocol was identical except that uninfected cells were used and compounds were serially diluted 3-fold.

HIV-2 CDC 310319 = test: Antiviral assay against HIV-2 isolate in fresh human PBMCs (RT endpoint); details: Human immunodeficiency virus 2, PBMC

## O=C(NCc1c(F)cc(F)cc1F)c1cn2c(c(O)c1=O)C(=O)N1[C@H]3CC[C@H](C3)O[C@@H]1C2 [BIC, Bictegravir]
In vitro [1]; CC50, Activated PBMCs (IL-2/PHA 2 days)
  CC50: 5700 nM
In vitro [1]; CC50, Resting PBMCs
  CC50: 8400 nM
[2]
  CC50 at 5 days: > 50000 nM
[3]
  EC50: 1.7 ± 0.5 nM
[4]
  EC50: > 50000 nM
[5]
  IC50: 7.5 ± 0.3 nM
[6]
  reduction of authentic integration products in infected cells: 100 fold
HIV-1 clinical isolates; Human immunodeficiency virus 1, BAL, PBMC, HIV-1 subtype B isolate BaL, human PBMCs
  EC50: 0.35 ± 0.12 nM
HIV-1 clinical isolates; Human immunodeficiency virus 1, PBMC, HIV-1 subtype A isolate 92RW016, human PBMCs
  EC50: 0.71 ± 0.26 nM
HIV-1 clinical isolates; Human immunodeficiency virus 1, PBMC, HIV-1 subtype A isolate 92UG037, human PBMCs
  EC50: 1.5 ± 0.6 nM
HIV-1 clinical isolates; Human immunodeficiency virus 1, PBMC, HIV-1 subtype B isolate 89BZ_167, human PBMCs
  EC50: 1 ± 0.5 nM
HIV-1 clinical isolates; Human immunodeficiency virus 1, PBMC, HIV-1 subtype B isolate 91US001, human PBMCs
  EC50: 0.89 ± 0.17 nM
HIV-1 clinical isolates; Human immunodeficiency virus 1, PBMC, HIV-1 subtype B isolate 91US004, human PBMCs
  EC50: 1.2 ± 0.4 nM
HIV-1 clinical isolates; Human immunodeficiency virus 1, PBMC, HIV-1 subtype C isolate 93IN905, human PBMCs
  EC50: 0.15 ± 0.01 nM
HIV-1 clinical isolates; Human immunodeficiency virus 1, PBMC, HIV-1 subtype C isolate 98US_MSC5016, human PBMCs
  EC50: 1.2 ± 0.2 nM
HIV-1 clinical isolates; Human immunodeficiency virus 1, PBMC, HIV-1 subtype D isolate 98UG_57128, human PBMCs
  EC50: 0.33 ± 0.01 nM
HIV-1 clinical isolates; Human immunodeficiency virus 1, PBMC, HIV-1 subtype E isolate 96TH_M02138, human PBMCs
  EC50: 0.51 ± 0.17 nM
HIV-1 clinical isolates; Human immunodeficiency virus 1, PBMC, HIV-1 subtype E isolate 96TH_NI1046, human PBMCs
  EC50: 0.25 ± 0.06 nM
HIV-1 clinical isolates; Human immunodeficiency virus 1, PBMC, HIV-1 subtype F isolate 93BR020, human PBMCs
  EC50: 1.2 ± 0.5 nM
HIV-1 clinical isolates; Human immunodeficiency virus 1, PBMC, read-out: mean EC50 against clinical isolates, 14 HIV-1 isolates and one HIV-2 isolate, human PBMCs
  EC50: 0.81 nM
HIV-1 clinical isolates; Human immunodeficiency virus 1, PBMC, read-out: range of EC50s against clinical isolates, 14 HIV-1 isolates and one HIV-2 isolate, human PBMCs
  EC50: 0.04 to 1.7 nM
Influenza A/PC/1/73
  EC50: 53500 nM
[7]
  IC50: 241 ± 51 nM
In vitro [8]; Donor 1
  CC50: > 100000 nM
In vitro [8]; Donor 2
  CC50: > 100000 nM
HIV-1 IIIb
  EC50: 1.9 ± 0.6 nM
[9]
  CC50 at 5 days: 10300 nM
HIV-2 CDC 310319
  EC50: 1.7 ± 1 nM

— article PMC5118987 (Antimicrobial Agents and Chemotherapy, 2016)
